Tests used:
ncp BVDV strain Pe515 = assay: Real time RT-PCR of secreted viral RNA in supernatants of persistently infected MDBK cells (Example 3); assay type: cell-based, bovine viral diarrhea virus; details: iminosugar added to IFN/RBV from the beginning of treatment
Experimental: Madin-Darby bovine kidney cells (MDBK) MDBK cells were seeded at 1×10^6 cells/35 mm dish, infected with non-cytopathic (ncp) BVDV strain Pe515 (National Animal Disease Laboratory) at a MOI of 0.1, and passaged into fresh RPMI 1640 medium containing 10% (v/v) Foetal calf serum using a 1:8 dilution every three days. After achieving a stable infection IFN (1000 IU) and RBV (1 μM) (Sigma-Aldrich) were added to the cells; this passage was denoted passage 0 (P0). Simultaneously, a non-drug treated positive control sample and mock-infected (M.I.) negative controls cultured in the presence and absence of IFN and RBV (1000 IU and 1 μM, respectively) were prepared. Cells continued to be passaged every 3 days into fresh medium containing IFN and RBV. […] At each passage the combined supernatants of cultured cells from duplicate wells were harvested (to account for biological variation), levels of secreted viral RNA measured (by real time RT-PCR using technical duplicates) and the infectivity of the supernatant determined using an immunofluorescence (IF) based infectivity assay.
At each passage, a 500 μl aliquot of each supernatant harvested from the cultured cells was concentrated by ultrafiltration (10 kDa molecular weight cut off Centricon filter; Millipore, Mass., USA) to 140 μl. […] Real time RT-PCR was carried out using the Qiagen Quantitect RT-PCR kit. […]

cytopathic BVDV = details: higher NB-DNJ concentrations in combination with IFN; cited from earlier work

CCCCN1C[C@H](O)[C@@H](O)[C@H](O)[C@H]1CO [NB-DNJ, N-butyl deoxynojirimycin]
additional effect on decrease of viral RNA levels (synergy) (ncp BVDV strain Pe515): no synergy was observed | antiviral effect of the combination (cytopathic BVDV): greater than additive antiviral effect
